Experiments:
HIV-1 strain LAI = assay: Cellular anti-viral assay in MT4-LTR-EGFP cells, wild type HIV-1 strain LAI; format: cell-based; details: Human immunodeficiency virus 1, 72 h; MT4-LTR-EGFP cells, three days incubation, GFP signal; average EC50 used where more than one run; read-out: Activity class for HIV-1-LAI test
Protocol: (§1) The compounds were tested in a cellular assay using the MT4-LTR-EGFP cells for anti-viral activity. […] The cellular assay was performed according to the following procedure.
(§2) HIV- or mock-infected MT4-LTR-EGFP cells were incubated for three days in the presence of various concentrations of the inhibitor. Upon infection, the GFP reporter is activated by the viral tat protein. At the end of the incubation period, the GFP signal was measured. In the virus control samples (in the absence of any inhibitor) the maximal fluorescent signal was obtained. The inhibitory activity of the compound was monitored on the virus-infected cells and was expressed as EC50 and EC90. These values represent the amount of the compound required to protect 50% and 90%, respectively, of the cells from virus infection. The toxicity of the compound was measured on the mock-infected cells and was expressed as CC50, which represents the concentration of compound required to inhibit the growth of the cells by 50%. The selectivity index (SI) (ratio CC50/EC50) is an indication of the selectivity of the anti-HIV activity of the inhibitor.

HIV-1-MDR = assay: Cellular anti-viral assay in MT4-LTR-EGFP cells, multi-drug resistant HIV-1 virus; format: cell-based; details: Human immunodeficiency virus 1, 72 h, read-out: Activity class for HIV-1-MDR test
Protocol: as §1, §2

COc1cccc(CNC(=O)c2ccc(C3=NN4C(C(=O)c5ccc(F)cc5)Oc5ccccc5C4C3)cc2)c1 (centres unmarked) [Compound 24]
EC50 (HIV-1 strain LAI): 1 to 10 µM | EC50 (HIV-1-MDR): 1 to 10 µM

Reference: patent publication US7326703B2, “(1,10B-Dihydro-2-(aminocarbonyl-phenyl)-5H-pyrazolo[1,5-c][1,3]benzoxazin-5-yl)phenyl methanone derivatives as HIV viral replication inhibitors” (priority 2004, dated 2008)
